Calls of active or inactive are those of the source.
Experiments:
[1] = target: DNA dC->dU-editing enzyme APOBEC-3G (Homo sapiens, UniProt Q9HC16); type: functional;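 note: Dose-response counterscreen measuring inhibition of APOBEC3G DNA deaminase activity, run while confirming APOBEC3A inhibitors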
[2] = target: DNA dC->dU-editing enzyme APOBEC-3A (Homo sapiens, UniProt P31941); test: Dose Response confirmation of small molecule APOBEC3A DNA Deaminase Inhibitors via a fluorescence-based single-stranded DNA deaminase assay. [Related pubchem assays (depositor defined):AID493011, AID493024]; type: functional
[3] = ZM109 Env clade C HIV-1 fusion inhibitors, dose response, HeLa effector, CEM target cells, luciferase, cherry-pick (AID 652058); type: functional, cell-based
[4] = inhibitors of clade B AD8 Env fusion, dose response, cell-based, cherry-pick (AID 652062); type: functional;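 note: luciferase signal from cell-cell fusion driven by HIV-1 clade B AD8 Env; potency is for inhibitors of fusion seen as a drop in luminescence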
[5] = cells
[6] = target: Major prion protein (Homo sapiens, UniProt P04156); type: functional, cell-based
[7] = target: Glucose-6-phosphate 1-dehydrogenase (Homo sapiens, UniProt P11413); test: human G6PD enzyme inhibitors, dose response, selectivity assay for P. falciparum G6PD inhibitor project, biochemical, fluorescence (AID 504792); type: functional
[8] = target: T1, Protein RecA (Mycobacterium tuberculosis, UniProt P9WHJ3); test: Fluorescence Cell-Free Homogeneous Dose Retest to Identify Inhibitors of RecA-Intein Splicing Activity. [Related pubchem assays (depositor defined):AID2097, AID2223, AID489010, AID492950]; type: functional
T1 sequence (P9WHJ3 whole entry): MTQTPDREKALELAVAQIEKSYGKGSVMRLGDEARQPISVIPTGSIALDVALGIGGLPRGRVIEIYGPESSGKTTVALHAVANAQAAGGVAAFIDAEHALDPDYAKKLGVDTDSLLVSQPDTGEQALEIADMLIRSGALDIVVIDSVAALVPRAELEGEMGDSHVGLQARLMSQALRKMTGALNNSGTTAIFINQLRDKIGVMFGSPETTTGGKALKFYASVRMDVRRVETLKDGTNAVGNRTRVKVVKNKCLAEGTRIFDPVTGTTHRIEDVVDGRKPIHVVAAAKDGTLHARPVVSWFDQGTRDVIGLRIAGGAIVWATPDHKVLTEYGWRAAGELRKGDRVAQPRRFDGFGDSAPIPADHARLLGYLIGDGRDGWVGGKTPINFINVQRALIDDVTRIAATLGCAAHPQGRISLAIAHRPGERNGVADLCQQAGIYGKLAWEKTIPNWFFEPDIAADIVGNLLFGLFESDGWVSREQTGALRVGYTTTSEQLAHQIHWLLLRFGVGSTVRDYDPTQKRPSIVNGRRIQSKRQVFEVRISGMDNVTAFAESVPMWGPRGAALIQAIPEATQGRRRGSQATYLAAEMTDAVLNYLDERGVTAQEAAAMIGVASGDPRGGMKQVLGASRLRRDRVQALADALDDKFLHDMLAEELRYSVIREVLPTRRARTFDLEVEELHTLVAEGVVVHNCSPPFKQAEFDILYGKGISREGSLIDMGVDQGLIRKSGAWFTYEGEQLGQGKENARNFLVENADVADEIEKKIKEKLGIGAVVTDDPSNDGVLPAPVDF

[9] = target: T2, Replicative DNA helicase DnaB (Mycobacterium tuberculosis, UniProt P9WMR3); test: DnaB intein splicing inhibitors, dose response, biochemical, cell-free fluorescence (AID 449749); type: functional
T2 sequence (P9WMR3 whole entry): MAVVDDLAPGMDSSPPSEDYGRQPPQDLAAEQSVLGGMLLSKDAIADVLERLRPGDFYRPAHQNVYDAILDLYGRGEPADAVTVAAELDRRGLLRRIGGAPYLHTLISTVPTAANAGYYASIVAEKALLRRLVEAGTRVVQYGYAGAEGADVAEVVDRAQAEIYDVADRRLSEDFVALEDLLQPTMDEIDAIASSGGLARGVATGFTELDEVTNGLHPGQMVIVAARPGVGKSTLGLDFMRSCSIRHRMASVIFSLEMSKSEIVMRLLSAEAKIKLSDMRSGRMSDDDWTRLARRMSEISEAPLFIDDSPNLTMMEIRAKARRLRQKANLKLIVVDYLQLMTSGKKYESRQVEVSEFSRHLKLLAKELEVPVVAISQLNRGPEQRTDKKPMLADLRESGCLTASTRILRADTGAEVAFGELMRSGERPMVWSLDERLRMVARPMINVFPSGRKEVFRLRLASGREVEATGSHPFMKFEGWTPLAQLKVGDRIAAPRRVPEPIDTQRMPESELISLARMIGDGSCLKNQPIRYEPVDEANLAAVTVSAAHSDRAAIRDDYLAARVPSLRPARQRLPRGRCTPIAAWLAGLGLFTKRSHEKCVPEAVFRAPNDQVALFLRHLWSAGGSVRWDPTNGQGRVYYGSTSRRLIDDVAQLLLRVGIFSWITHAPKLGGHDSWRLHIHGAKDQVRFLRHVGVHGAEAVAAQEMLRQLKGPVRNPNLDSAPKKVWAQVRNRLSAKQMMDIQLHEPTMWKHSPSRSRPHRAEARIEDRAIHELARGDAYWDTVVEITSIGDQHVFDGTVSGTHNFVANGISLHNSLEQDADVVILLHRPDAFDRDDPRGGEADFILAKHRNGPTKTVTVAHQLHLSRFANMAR

[10] = target: Genome polyprotein (dengue virus type 2, UniProt P29990); test: Dengue-2 NS5 methyltransferase inhibitors, primary screen, biochemical, confirmation dose response (AID 588689); type: functional
[11] = system: Vero; test: Vero cell cytotoxicity, cytotoxicity control for flavivirus capping enzyme inhibitors (AID 588742); type: functional; settings: Chlorocebus sabaeus
[12] = LGR2 antagonists, dose response, cell-based, HEK293, CRE-luciferase reporter, cherry pick, set 2 (AID 743343); type: functional;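 note: transfected cells were stimulated with diluted bursicon conditioned medium after compound addition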
[13] = A549 cell cytotoxicity, dose response, cytotoxicity control, plate reader, cherry-pick, antagonist series (AID 743412); type: functional, cell-based
[14] = HepG2 cell cytotoxicity, dose response, cytotoxicity control, plate reader, cherry-pick, antagonist series (AID 743416); type: functional, cell-based
[15] = NIH-3T3 fibroblast cytotoxicity, dose response, cytotoxicity control, cell-based, fluorescence, Alamar Blue, secondary assay (AID 2327); type: functional;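 note: NIH-3T3 mouse fibroblasts cultured with fluconazole at 8 µg/mL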
[16] = C. albicans growth with fluconazole, confirmation, fluorescence, retest (AID 2467); type: functional, cell-based
[17] = target: T3, Mannose-6-phosphate isomerase (Homo sapiens, UniProt P34949); test: human PMI inhibitors, high substrate, primary screen, biochemical, fluorescence intensity, high mannose 6-phosphate (AID 1220)
T3 sequence (P34949 whole entry): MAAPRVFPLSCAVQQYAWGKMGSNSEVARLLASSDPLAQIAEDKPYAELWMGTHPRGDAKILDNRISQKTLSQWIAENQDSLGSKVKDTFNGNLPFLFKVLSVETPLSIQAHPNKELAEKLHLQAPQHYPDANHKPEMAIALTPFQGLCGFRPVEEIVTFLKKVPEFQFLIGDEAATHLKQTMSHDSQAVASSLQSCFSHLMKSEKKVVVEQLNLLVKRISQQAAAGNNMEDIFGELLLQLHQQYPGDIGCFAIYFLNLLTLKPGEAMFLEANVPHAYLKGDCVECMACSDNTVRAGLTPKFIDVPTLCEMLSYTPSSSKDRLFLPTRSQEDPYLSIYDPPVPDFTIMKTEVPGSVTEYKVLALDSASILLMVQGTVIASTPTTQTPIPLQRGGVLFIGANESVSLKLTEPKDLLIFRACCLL

[18] = target: Induced myeloid leukemia cell differentiation protein Mcl-1 (Homo sapiens, UniProt Q07820); type: functional
[19] = target: T4, Apoptotic protease-activating factor 1 (Homo sapiens, UniProt O14727); type: functional
T4 sequence (O14727 whole entry): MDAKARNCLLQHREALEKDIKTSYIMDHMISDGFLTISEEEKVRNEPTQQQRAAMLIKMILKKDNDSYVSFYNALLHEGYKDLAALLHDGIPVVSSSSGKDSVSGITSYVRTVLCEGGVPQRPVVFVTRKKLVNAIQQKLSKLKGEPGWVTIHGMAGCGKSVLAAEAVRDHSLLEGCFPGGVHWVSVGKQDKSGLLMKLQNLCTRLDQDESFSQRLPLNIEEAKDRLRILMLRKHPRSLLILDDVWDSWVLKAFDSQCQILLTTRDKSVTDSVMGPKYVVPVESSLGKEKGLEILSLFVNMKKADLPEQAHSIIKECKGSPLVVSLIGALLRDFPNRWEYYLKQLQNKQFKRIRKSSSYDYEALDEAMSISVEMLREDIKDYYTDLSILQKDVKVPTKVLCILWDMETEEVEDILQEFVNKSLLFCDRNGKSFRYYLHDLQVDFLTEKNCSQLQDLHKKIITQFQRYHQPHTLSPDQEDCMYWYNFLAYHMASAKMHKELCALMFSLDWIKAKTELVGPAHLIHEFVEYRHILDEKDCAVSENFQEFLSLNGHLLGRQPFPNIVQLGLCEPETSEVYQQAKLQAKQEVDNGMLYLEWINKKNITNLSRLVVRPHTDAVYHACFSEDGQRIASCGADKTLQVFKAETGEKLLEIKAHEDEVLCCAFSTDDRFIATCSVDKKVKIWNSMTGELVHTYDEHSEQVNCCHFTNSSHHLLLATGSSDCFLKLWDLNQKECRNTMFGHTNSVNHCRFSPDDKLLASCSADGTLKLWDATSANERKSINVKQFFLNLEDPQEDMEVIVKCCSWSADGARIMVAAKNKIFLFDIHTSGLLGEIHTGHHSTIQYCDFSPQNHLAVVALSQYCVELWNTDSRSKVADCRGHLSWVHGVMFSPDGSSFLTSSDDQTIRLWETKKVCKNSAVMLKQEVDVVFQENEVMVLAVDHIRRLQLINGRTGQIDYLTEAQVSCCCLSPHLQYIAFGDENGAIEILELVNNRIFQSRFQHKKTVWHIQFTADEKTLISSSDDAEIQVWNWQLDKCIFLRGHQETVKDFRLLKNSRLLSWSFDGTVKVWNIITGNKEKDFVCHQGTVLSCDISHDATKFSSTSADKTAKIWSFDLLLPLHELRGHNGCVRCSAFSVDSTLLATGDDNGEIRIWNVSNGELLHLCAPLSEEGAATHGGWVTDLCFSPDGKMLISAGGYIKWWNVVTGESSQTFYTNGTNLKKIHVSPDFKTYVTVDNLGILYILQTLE

[20] = inhibitors of HIV Env-driven cell fusion, dose response, cherry-pick (AID 652057); type: functional, cell-based
[21] = target: T5, Carboxy-terminal domain RNA polymerase II polypeptide A small phosphatase 1 (Homo sapiens, UniProt Q9GZU7); test: inhibitors of CTDSP1, concentration-response testing, biochemical assay, absorbance-based, actives from ultra-high-throughput screening (AID 540297); type: functional
T5 sequence (Q9GZU7 whole entry): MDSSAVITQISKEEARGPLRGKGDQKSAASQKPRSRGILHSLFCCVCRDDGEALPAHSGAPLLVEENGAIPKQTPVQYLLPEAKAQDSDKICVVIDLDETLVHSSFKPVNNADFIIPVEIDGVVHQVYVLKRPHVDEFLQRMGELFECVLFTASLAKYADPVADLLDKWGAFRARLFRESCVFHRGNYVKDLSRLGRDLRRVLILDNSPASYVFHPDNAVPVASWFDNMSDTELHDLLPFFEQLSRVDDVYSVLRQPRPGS

Sequence of Genome polyprotein (P29990 2492-3391 limits assumed): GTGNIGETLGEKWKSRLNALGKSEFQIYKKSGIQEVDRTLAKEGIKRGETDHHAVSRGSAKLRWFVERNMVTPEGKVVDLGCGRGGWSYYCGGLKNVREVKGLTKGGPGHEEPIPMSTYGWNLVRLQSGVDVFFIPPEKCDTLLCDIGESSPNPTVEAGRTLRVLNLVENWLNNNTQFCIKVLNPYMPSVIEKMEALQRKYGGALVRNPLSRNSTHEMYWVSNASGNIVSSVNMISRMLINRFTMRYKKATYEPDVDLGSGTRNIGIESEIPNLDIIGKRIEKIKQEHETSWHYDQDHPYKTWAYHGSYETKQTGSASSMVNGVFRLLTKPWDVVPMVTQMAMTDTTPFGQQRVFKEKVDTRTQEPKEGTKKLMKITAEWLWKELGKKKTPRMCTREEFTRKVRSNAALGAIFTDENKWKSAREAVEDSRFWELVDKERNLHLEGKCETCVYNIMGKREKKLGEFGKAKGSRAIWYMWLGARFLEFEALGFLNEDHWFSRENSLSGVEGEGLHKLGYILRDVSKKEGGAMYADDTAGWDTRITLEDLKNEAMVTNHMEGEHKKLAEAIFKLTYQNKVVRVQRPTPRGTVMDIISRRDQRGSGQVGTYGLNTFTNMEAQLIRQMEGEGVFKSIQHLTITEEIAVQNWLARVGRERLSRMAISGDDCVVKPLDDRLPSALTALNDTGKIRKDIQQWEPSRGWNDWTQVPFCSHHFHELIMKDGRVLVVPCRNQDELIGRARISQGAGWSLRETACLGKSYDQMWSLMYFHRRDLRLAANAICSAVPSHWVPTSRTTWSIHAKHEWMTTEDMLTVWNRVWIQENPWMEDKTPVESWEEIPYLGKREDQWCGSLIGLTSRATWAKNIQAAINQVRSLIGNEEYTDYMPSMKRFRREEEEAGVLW
Sequence of DNA dC->dU-editing enzyme APOBEC-3G (Q9HC16 whole entry): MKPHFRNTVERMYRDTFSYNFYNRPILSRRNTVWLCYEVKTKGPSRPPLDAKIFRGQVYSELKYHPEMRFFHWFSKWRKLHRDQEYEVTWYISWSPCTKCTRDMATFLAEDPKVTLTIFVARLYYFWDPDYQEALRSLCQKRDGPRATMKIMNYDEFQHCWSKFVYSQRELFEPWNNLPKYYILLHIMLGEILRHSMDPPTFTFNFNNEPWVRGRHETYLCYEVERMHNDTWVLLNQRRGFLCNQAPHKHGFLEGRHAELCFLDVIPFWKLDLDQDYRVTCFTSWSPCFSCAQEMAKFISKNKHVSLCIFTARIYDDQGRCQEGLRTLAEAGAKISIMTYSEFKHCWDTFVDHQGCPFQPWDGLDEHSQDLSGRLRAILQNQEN
Sequence of Glucose-6-phosphate 1-dehydrogenase (P11413 whole entry): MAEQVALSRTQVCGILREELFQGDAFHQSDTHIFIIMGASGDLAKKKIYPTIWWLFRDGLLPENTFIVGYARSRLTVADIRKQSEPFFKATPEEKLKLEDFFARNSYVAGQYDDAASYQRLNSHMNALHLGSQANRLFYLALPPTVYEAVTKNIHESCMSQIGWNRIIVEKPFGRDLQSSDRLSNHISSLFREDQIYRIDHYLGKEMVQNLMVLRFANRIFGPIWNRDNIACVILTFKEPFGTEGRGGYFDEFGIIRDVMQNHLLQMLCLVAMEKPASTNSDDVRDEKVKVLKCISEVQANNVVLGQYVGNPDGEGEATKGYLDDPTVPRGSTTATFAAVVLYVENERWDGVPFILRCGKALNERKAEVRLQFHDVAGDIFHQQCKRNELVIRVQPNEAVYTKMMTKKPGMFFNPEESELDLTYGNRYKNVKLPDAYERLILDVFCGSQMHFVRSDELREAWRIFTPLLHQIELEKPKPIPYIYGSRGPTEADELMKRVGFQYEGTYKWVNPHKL
Sequence of DNA dC->dU-editing enzyme APOBEC-3A (P31941 whole entry, the tested form may be a part): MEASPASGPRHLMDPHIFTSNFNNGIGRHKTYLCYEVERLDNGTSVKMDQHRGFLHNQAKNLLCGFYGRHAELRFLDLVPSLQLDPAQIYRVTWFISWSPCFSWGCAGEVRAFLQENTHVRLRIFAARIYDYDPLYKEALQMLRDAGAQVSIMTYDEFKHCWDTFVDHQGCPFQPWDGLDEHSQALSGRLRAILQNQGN
Sequence of Induced myeloid leukemia cell differentiation protein Mcl-1 (Q07820 whole entry): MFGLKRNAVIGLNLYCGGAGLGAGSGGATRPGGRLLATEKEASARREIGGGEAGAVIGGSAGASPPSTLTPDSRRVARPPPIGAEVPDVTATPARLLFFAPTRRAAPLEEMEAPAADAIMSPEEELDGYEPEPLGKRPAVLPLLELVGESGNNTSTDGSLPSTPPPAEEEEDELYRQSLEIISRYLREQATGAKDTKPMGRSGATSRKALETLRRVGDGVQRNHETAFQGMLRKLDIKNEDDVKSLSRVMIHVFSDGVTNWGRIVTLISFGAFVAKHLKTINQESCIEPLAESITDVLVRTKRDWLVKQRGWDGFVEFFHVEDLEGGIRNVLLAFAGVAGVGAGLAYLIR

Structure (SMILES): O=C1C=C(O)CC(c2ccco2)C1 (configuration not stated)
- IC50 [1]: 37.5 µM (active)
- IC50 [2]: 14 µM (active)

Structure (SMILES): c1ccc2c(c1)OCC(CNc1[nH]cnc3ncnc1-3)O2 (configuration not stated)
- AC50 [3]: 7.15 µM (active)
- AC50 [4]: 2.64 µM (active)

Structure (SMILES): Sc1nc(Cc2ccc(Cl)cc2)nc2ccccc12
- IC50 [5]: > 138 µM (inactive)
- IC50 [6]: 7.46 µM (active)

Structure (SMILES): O=C(CSc1n[nH]c(-c2ccncc2)n1)Nc1ccc(Cl)c(Cl)c1
- IC50 [1]: 9.18 µM (active)
- IC50 [2]: 8.81 µM (active)

Structure (SMILES): Nc1cc(N)c(OCC(F)(F)F)cc1OCC(F)(F)F
- IC50 [7]: 32.7 µM (inactive)
- EC50 [8]: 4.82 µM (active)
- AC50 [9]: 7.43 µM (active)

Structure (SMILES): CC(=O)Nc1nnc(SCC(=O)NCC2CCCO2)s1 (configuration not stated)
- IC50 [1]: 22.5 µM (active)
- IC50 [2]: 38.6 µM (active)

Structure (SMILES): Cc1ccc(S(=O)(=O)N2[C@@H](c3cccc(Cl)c3)C(C(=O)O)=CC[C@H]2c2ccc(Cl)c(Cl)c2)cc1
- IC50 [10]: 57.9 µM (active)
- CC50 [11]: > 40 µM (active)

Structure (SMILES): O=C(COc1ccccc1F)OCC(=O)c1ccc([N+](=O)[O-])cc1
- IC50 [7]: > 80 µM (inactive)

Structure (SMILES): O=C(O)C1=CC[C@@H](c2ccc(Cl)cc2)N(S(=O)(=O)c2ccc(Cl)cc2)[C@H]1c1ccc(Br)cc1
- IC50 [10]: 36.5 µM (active)
- CC50 [11]: > 40 µM (active)

Structure (SMILES): COc1ccc(C(=O)CC(Sc2ccccc2N)c2ccc(OC)cc2)cc1 (configuration not stated)
- AC50 [12]: 28.7 µM (active)
- AC50 [13]: 48.4 µM (active)
- AC50 [14]: > 52 µM (inactive)

Structure (SMILES): O=[N+]([O-])c1ccc(N/N=C/c2ccc(O)c(O)c2O)c(S(=O)(=O)N2CCOCC2)c1
- IC50 [7]: 55.6 µM (inactive)
- EC50 [15]: 24.9 µM (active)
- IC50 [10]: 4.6 µM (active)
- EC50 [16]: > 38 µM (not active)
- IC50 [17]: > 50 µM (not active)
- IC50 [18]: 2.98 µM (active)
- IC50 [19]: 21.4 µM (active)

Structure (SMILES): COc1ccc(NC(=O)Nc2ccc3c(c2)C(=O)N([C@H](C)CO)C[C@H](C)[C@H](CN(C)CC2CC2)OCCCC[C@H](C)O3)cc1
- AC50 [3]: 26.5 µM (active)
- AC50 [4]: 23.5 µM (active)
- AC50 [20]: 25.9 µM (active)

Structure (SMILES): C[C@H](CO)N1C[C@H](C)[C@H](CN(C)Cc2cccnc2)OCc2ccccc2-c2c(n(C)c3ccccc23)C1=O
- AC50 [3]: 1.21 µM (active)
- AC50 [4]: 0.805 µM (active)
- AC50 [20]: 15.6 µM (active)

Structure (SMILES): CC[N+](CC)(CC)CCOc1ccc(/C=C/c2ccccc2)cc1 [STILONIUM IODIDE]
- IC50 [1]: 2.57 µM (active)
- IC50 [2]: 2.33 µM (active)
- IC50 [21]: 20.2 µM (active)
